Reference: patent publication US20120276098A1, “DRUG FUSIONS AND CONJUGATES WITH EXTENDED HALF LIFE” (priority 2009, published 2012)

System: db/db C57BL/6J mice
Experiment: Chronic diabetes efficacy study in db/db mice, peptide-AlbudAbs alone and combined
Type: in vivo, mouse
Conditions: for decrease in glycosylated HbAlc: baseline vs day 16; for plasma insulin levels: day 16
Method: Male db/db C57BL/6J mice (Jackson Labs, Bar Harbor, Me.) were used for all experiments. The db/db mice (B6.Cg-m +/+ Leprdb/J) and controls were group-housed by the vendor. The db/db mice (10-12 weeks of age), and age-matched controls were shipped to GSK where they were single-housed and maintained at constant temperature (approximately 22° C.) with 12 hr light/dark cycle (lights on from 5:00 AM to 5:00 PM). Mice were given ad libitum access to food (LabDiet 5K67, 16% fat for db/db and their controls) and water. All animal protocols were approved by the institutional animal care and use committee at GlaxoSmithKline in Research Triangle Park, N.C. The peptide-AlbudAbs were prepared fresh daily. The correct dosing concentration of the drug was obtained by diluting the master stock using a citrate vehicle buffer comprised of 100 mM NaCl, 20 mM citric acid, pH 6.2 (filter sterilized). For combination dosing, the drugs were mixed together so that only one injection would be required.
Chronic Diabetes Efficacy Studies: The db/db mice and age-matched lean controls were habituated in house 2 weeks before the start of the study. Animals were dosed every two days between 2-4 pm subcutaneously with a dose volume of 5 ml/kg over a period of 15 days. A three day vehicle lead in period was used before the start of drug with the first day being vehicle and the second two days being mock injections. Baseline fat mass and lean mass measurements were taken 3 days before the start of drug and on day 15 using a QMR instrument (Echo Medical Systems, Houston, Tex.) Body weight measurements were taken every Monday, Wednesday, and Friday starting four days before the first drug dose. […] Food hopper weights were measured every weekday starting 4-6 days before the first drug dose, allowing for the calculation of food intake. Animals that created excessive food spillage were removed prior to the beginning of the study. During the study, excess food was removed from the cage and added to the food hopper weights for increased accuracy. Eight animals (n=8) were used for the lean control group and eight animals (n=8) were used for all other treatment groups. A pair-fed control was included in which the daily food intake for the combination ED80 group was calculated and that amount of food was given to the pair-fed group to eat the next day. Sixteen days after the start of drug treatment, animals were fasted for at least 4 hours before collection of whole blood, plasma, and serum samples via terminal cardiac exsanguinations. The whole blood was used to determine the % HbAlc, the plasma was used for a gastrointestinal hormone panel, and the serum was used to access multiple chemistries. Finally, major organs and tissues were collected (heart, kidney, liver, lung, stomach, duodenum, colon, pancreas, brown adipose, white adipose, carcass) on day 16 and fixed in 10% neutral buffered formalin for macroscopic and microscopic histological examination.

[1] = ED20 doses: PYY-AlbudAb 0.1 mg/kg, Exendin-4-AlbudAb 0.01 mg/kg, Combo ED20

DAT 0115: genetic fusion: exendin-4, (G4S)3 linker, 7h-14 AlbudAb, SEQ ID NO 2
inhibition of weight gain (in words) (PYY-AlbudAb 1.0 mg/kg, Exendin-4-AlbudAb 0.1 mg/kg, Combo ED80): effective at inhibiting weight gain
decrease in glycosylated HbAlc [1]: no significant changes
decrease in glycosylated HbAlc (ED80 doses: PYY-AlbudAb 1.0 mg/kg, Exendin-4-AlbudAb 0.1 mg/kg, Combo ED80): 0.80%
decrease in body weight from vehicle (day 15, ED80 doses: PYY-AlbudAb 1.0 mg/kg, Exendin-4-AlbudAb 0.1 mg/kg, Combo ED80): 9.2%
decrease in body weight relative to vehicle control (day 15, PYY-AlbudAb 0.1 mg/kg, Exendin-4-AlbudAb 0.01 mg/kg): no significant effect
plasma insulin levels [1]: trends towards increases
plasma insulin levels (ED80 doses: PYY-AlbudAb 1.0 mg/kg, Exendin-4-AlbudAb (dose not given), Combo ED80): 32036 pg/mL
